Source: patent US20140066465A1, “CANCER TREATMENT USING TYROSINE KINASE AND NF-kB INHIBITORS” (The Cleveland Clinic Foundation, priority 2012, published 2014)

Legend:
[1] = tested on: erlotinib-resistant NSCLC cell lines (A549, H1975, and H1993); assay: cells
Experimental: Erlotinib-resistance NSCLC cell lines A549, H1975, and H1993 were used.
(§1) The cells were plated in 96-well plates at 2500-3000 cells per well, and allowed to attach overnight, with 6 replicates being used for each dose. First, the inventors detected the IC50 with single drug treatment for each cell line.

sensitive cell lines = assay: MTT cell survival assay, single drug; format: cell-based; conditions: single drug treatment
Experimental: as §1

[2] = in vivo; cited from earlier work
CYP3A4 = CYP3A4 (Homo sapiens, UniProt P08684); conditions: cited from earlier work
Chain of CYP3A4 (P08684 whole entry): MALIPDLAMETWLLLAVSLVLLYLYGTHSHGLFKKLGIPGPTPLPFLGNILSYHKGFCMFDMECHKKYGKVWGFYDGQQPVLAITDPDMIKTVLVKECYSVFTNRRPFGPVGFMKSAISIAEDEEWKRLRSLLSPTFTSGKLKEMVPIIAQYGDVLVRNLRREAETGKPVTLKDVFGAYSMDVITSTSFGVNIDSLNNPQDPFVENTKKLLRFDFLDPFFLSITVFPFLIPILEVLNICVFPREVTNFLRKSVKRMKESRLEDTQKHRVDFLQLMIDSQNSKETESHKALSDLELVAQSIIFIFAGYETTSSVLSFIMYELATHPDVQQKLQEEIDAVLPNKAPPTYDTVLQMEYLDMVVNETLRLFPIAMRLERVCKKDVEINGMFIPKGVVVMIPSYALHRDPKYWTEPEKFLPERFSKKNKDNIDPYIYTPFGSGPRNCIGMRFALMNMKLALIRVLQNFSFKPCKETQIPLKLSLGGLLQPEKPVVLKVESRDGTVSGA

H1975 cells = assay: PARP cleavage Western blot; format: cell-based; conditions: 5 μM quinacrine, time course
NF-κB [3] = tested on: NF-κB
Experimental: For the NF-κB luciferase assay, A549 or H1975 cells were infected with the κB-luciferse construct PLANFκBluc and stably selected with puromycin or hygromycin. The reporter cells were then seeded in 96-well plates at 1-2×10^3 per well, allowed to attach overnight, and then treated with drugs and/or interleukin-1 for four hours. Cells were then harvested in reporter lysis buffer (Promega) and assayed for luciferase activity using the luciferase assay system (Promega).

NF-κB [4] = conditions: A549 or H1975 reporter cells; pretreated, then interleukin-1 for 6 h
Experimental: The reporter cells were then seeded in 96-well plates at 1-2×10^3 per well, allowed to attach overnight, and then treated with drugs and/or IL-1. Cells were then harvested in reporter lysis buffer (Promega) and assayed for luciferase activity using the luciferase assay system (Promega).

[5] = tested on: xenograft tumors originating from human renal cell carcinoma; conditions: mice; cited from earlier work

| IC50 [1] | SMILES | IC50 (sensitive cell lines) | half life [2] | route of clearance (CYP3A4) | Apoptosis by PARP cleavage (H1975 cells) | NF-κB-dependent luciferase reporter activity (NF-κB [3]; A549 or H1975 reporter cells, 4 h treatment, relative to untreated control) | NF-κB activity (NF-κB [3]; general statement of the inventors) | IL-1-induced NF-κB-dependent luciferase reporter activity (NF-κB [4]) | anti-tumor effect [5] |
| --- | --- | --- | --- | --- | --- | --- | --- | --- | --- |
| 10000 to 20000 nM | C#Cc1cccc(Nc2ncnc3cc(OCCOC)c(OCCOC)cc23)c1 [erlotinib] | ~20 nM | about 36 hours | cleared predominantly by CYP3A4 methabolism |  |  |  |  |  |
| 1000 to 2000 nM | CCN(CC)CCCC(C)Nc1c2ccc(Cl)cc2nc2ccc(OC)cc12 (stereo not shown) [quinacrine] |  |  |  | time-dependent increase of PARP cleavage | suppresses NF-κB-dependent luciferase reporter activity | profoundly suppresses NF-κB activity | suppresses interleukin-1 (IL-1)-induced NF-κB-dependent luciferase reporting activity | anti-tumor effect |
